How the values were obtained:
MCF-7 tumor cells [1] = test: Compound (A) in combination with palbociclib in MCF-7 xenograft model; type: in vivo, mouse; conditions: 28 days; for tumor regression: Compound (A) 80/60 mg/kg, palbociclib 50 mg/kg, alone or in combination; for TGI: monotherapy: Compound (A) 80/60 mg/kg alone or palbociclib 50 mg/kg alone, FIG. 6
Method: The antitumor activity of Compound (A) in combination with a CDK4/6 inhibitor, palbociclib was evaluated in the MCF-7 xenograft model. Each mouse was inoculated subcutaneously on the right flank with the MCF-7 tumor cells (1.5×10^7) in 200 μL DMEM Matrigel mixture (1:1 ratio) without serum for the tumor development. In addition, estradiol benzoate injection was delivered by s.c. (40 ug/20 uL, twice weekly). When mean tumor size reached 202 mm^3, mice were randomized into 5 groups (10 animals/group) and treatment was started. Animals were dosed with vehicle, 80/60 mg/kg Compound (A) alone, 50 mg/kg palbociclib alone, 80 mg/kg Compound (A) in combination with 50 mg/kg Palbociclib by sequential dosing schedule (alternated per two weeks) or Compound (A) at 80/60 mg/kg in combination with palbociclib at 50 mg/kg. Treatment periods were 28 days. In FIG. 6, the top line (indicated with circles) is vehicle. […] Furthermore, Compound (A) in combination with palbociclib induced around 55% tumor regression.

MCF-7 cells = test: Compound (A) in combination with palbociclib at a lower dose in MCF-7 xenograft model; type: in vivo, mouse; conditions: Compound (A) 60 mg/kg, palbociclib 25 mg/kg, alone or in combination; FIG. 7
Method: The antitumor activity of Compound (A) in combination with a CDK4/6 inhibitor, palbociclib at a lower dose was evaluated in the MCF-7 xenograft model. Each mouse was inoculated subcutaneously on the 2nd right mammary fat pad with 1.5×10^7 MCF-7 cells in 200 μL DMEM Matrigel mixture (1:1 ratio) without serum for the tumor development. In addition, estradiol benzoate injection was delivered by s.c. (40 ug/20 uL, twice weekly). The treatments were started when mean tumor size reached 203 mm^3. Mice were randomized into 4 groups (8 mice per group) and treated with vehicle control, 60 mg/kg Compound (A) alone, 25 mg/kg Palbociclib alone, Compound (A) at 60 mg/kg in combination with 25 mg/kg palbociclib. Study endpoints included daily body weight, clinical observations, tumor volume.

MCF-7 tumor cells [2] = test: Antitumor activity of Compound (A) as single agent in MCF-7 xenograft model; type: in vivo, mouse
Method: The antitumor activity of Compound (A) was assessed using the MCF-7 xenograft model. Each mouse was inoculated subcutaneously on the 2nd right mammary fat pad with 1.5×10^7 MCF-7 tumor cells in 200 μL DMEM Matrigel mixture (1:1 ratio) without serum for the tumor development. In addition, estradiol benzoate injection was delivered by s.c. (40 ug/20 uL, twice weekly). When mean tumor size reached 204 mm^3, animals were randomized into 2 groups (10 animals/group) and the treatments were initiated. Compound (A) or vehicle control was administered once daily by oral gavage and continued for 28-days. Study endpoints included daily body weight, clinical observations, tumor volume. […] In FIG. 3, the top line is vehicle, and the bottom line is Compound (A) (80 mg/kg qd×22 p.o).

[3] = test system: tamoxifen resistant ZR-75-1 tumor cells (ZR-75-1R); test: Single agent efficacy in ZR-75-1 tamoxifen resistant tumor model; type: in vivo, mouse; conditions: post 28 days treatment; Tamoxifen 100 mg/kg 5 days per week for three weeks; Compound (A) 80 mg/kg orally daily for 28 days; FIG. 4
Method: Compound (A)'s efficacy as a single agent was evaluated in ZR-75-1 tamoxifen resistant tumor model. The tamoxifen resistant ZR-75-1 tumor cells (ZR-75-1R) were maintained in vitro as monolayer culture in RPMI1640 Medium supplemented with 10% fetal bovine serum and 10 μM tamoxifen at 37° C. in an atmosphere of 5% CO2 incubator. Each mouse was then inoculated subcutaneously on the right flank with 1×10^7 ZR-75-1R tumor cells in 100 μL RPMI-1640 Matrigel mixture (1:1 ratio) without serum for the tumor development. In addition, estradiol benzoate injection was delivered by s.c. (40 ug/20 uL, twice weekly). Mice were then randomized into 3 groups when mean tumor size reached 191 mm^3 and treatment was started. Tamoxifen was dosed at 100 mg/kg 5 days per week for three weeks, Compound (A) was orally dosed at 80 mg/kg daily for 28 days. Study endpoints included daily body weight, clinical observations, tumor volume. In FIG. 4, the top line is Tamoxifen (100 mg/kg), the middle line is vehicle, and the bottom line is Compound (A) (80 mg/kg). […] No other gross clinical abnormalities were observed during the treatment period and animal body loss was manageable by giving animals dosing holiday.

HCC1428 tumor cells = test: Activity in mice bearing human HCC1428 breast cancer xenograft tumors; type: in vivo
Method: The activity of Compound (A) as evaluated in mice bearing human HCC1428 breast cancer xenograft tumors. Each mouse was inoculated subcutaneously at the right flank with HCC1428 tumor cells (1×10^7) in 0.2 mL mixture of PBS and Matrigel (PBS: Matrigel=1:1) for tumor development, which has been subcutaneously implanted with 17beta-estradiol tablets (0.18 mg, 90-day release) two days before cell implantation. Treatments were started on day 21 after tumor inoculation when the average tumor size reached approximately 185 mm^3. The animals were assigned into two groups using an excel-based randomization software performing stratified randomization based upon their tumor volumes. Each group consisted of 10 tumor bearing mice. The vehicle control or Compound (A) at 80 mg/kg was administrated once daily to the mice by oral gavage for 28 days. In FIG. 5, the top line is vehicle, and the bottom line is Compound (A).

[4] = test system: palbociclib-resistant breast cancer cells (CTG-1207); test: Palbociclib-resistant breast cancer PDX model (CTG-1207); type: in vivo, mice; conditions: Compound (A) 80 mg/kg, palbociclib 50 mg/kg, alone or in combination; FIG. 10A
Method: The antitumor activity of Compound (A) in combination with palbociclib was further evaluated in a palbociclib-resistant breast cancer PDX model (CTG-1207). Mice were inoculated subcutaneously with palbociclib-resistant breast cancer cells in DMEM Matrigel mixture (1:1 ratio) without serum for tumor development. Once tumor size reached approximately 200 mm^3, mice were randomized into 4 groups (8 mice per group) and treated with vehicle control, 80 mg/kg Compound (A) alone, 50 mg/kg Palbociclib alone, or Compound (A) at 80 mg/kg in combination with 50 mg/kg palbociclib. Study endpoints included daily body weight, clinical observations, tumor volume.

[5] = test system: HER2+ JIMT-1 breast cancer cell line; test: HER2+ JIMT-1 breast cancer xenograft, Study 1-Part 1; type: in vivo; conditions: Compound (A) 60 mg/kg p.o. qd × 28, trastuzumab 10 mg/kg i.p. qw × 4
Method: The HER2+ JIMT-1 breast cancer cell line was used for tumor xenograft inoculations and subsequent treatment. […] Treatment was started when mean tumor size reached 204 mm^3. Mice were then randomized into 5 groups and treatments were administered to the tumor-bearing mice accordingly to the study design in Table 2.

[6] = test system: HER2+ JIMT-1 breast cancer cell line; test: HER2+ JIMT-1 breast cancer xenograft, Study 1-Part 2 (high initial tumor burden); type: in vivo, NOD/SCID mice; conditions: Day 14 of second part; tumors approximately 1000 mm^3 at start; Compound (A) 60 mg/kg p.o. qd; trastuzumab 10 mg/kg i.p. qw; vs. vehicle
[7] = Compound (A) 80 mg/kg once daily p.o.
[8] = Compound (A) 80 mg/kg once daily p.o. 28 days

Structure (SMILES) | tumor regression (MCF-7 tumor cells [1]) [%] | TGI (MCF-7 tumor cells [1]) | TGI (MCF-7 cells) [%] | inhibition of tumor growth (MCF-7 tumor cells [2]; Compound (A) 80 mg/kg once daily by oral gavage, single agent, FIG. 3) [%] | clinical observations (MCF-7 tumor cells [2]; [7]) | mean body weights (MCF-7 tumor cells [2]; [7]) | TGI (tumor growth inhibition) [3] [%] | tumor growth inhibition (TGI) (HCC1428 tumor cells; Compound (A) 80 mg/kg once daily by oral gavage for 28 days, FIG. 5) [%] | body weight loss (HCC1428 tumor cells; [8]) | clinical observations (HCC1428 tumor cells; [8]) | tumor growth / TGI (in words) [4] | tumor growth inhibition (TGI) on Day 29 compared to respective vehicle controls ([5]; combination vs. either vehicle control) [%] | TGI (%) vs. Vehicle A ([5]; Day 29, Vehicle A p.o.) [%] | TGI (%) on Day 14 [6] [%]
CC(=O)c1c(C)c2cnc(Nc3ccc(N4CCNCC4)cn3)nc2n(C2CCCC2)c1=O [palbociclib, reference compound] | 39.1 | ~119% | 14.2 | – | – | – | – | – | – | – | – | – | – | –
C=CCn1c(=O)c2cnc(Nc3ccc(N4CCN(C)CC4)cc3)nc2n1-c1ccc2c(n1)[C@@](O)(CC)CC2 [Compound (A)] | 32.7 | around 116% | 48.6 | 132.6 | no adverse clinical observations | no significant impact on mean body weights | 69.9 | 96.2 | no significant body weight loss | no adverse clinical observations | reduced tumor growth | 68 | 67.7 | 68.2
CC/C(=C(\c1ccccc1)c1ccc(OCCN(C)C)cc1)c1ccccc1 [Tamoxifen, reference compound] | – | – | – | – | – | – | −47.9 | – | – | – | – | – | – | –

Source: patent US20240325397A1, “USE OF COMBINATION THERAPY FOR TREATING CANCER” (Recurium IP Holdings, LLC, priority 2021, published 2024)
